From patent EP0123485A1, “Colon-specific prodrug, the preparation and uses thereof” (priority 1983, dated 1984)

What was measured:
[1] = Recovery of steroid glycoside and free steroid from intestinal contents and tissues after intragastric administration; format: in vivo, Sprague-Dawley rats; conditions: rat, in vivo, po
Description: Male, Sprague-Dawley rats (ca 250 g) were maintained on laboratory rat chow and water ad lib. These rats were fasted overnight (16 hr.) prior to administration of glucoside or free steroid. Water bottles were removed from the cages at least 30 min prior to drug administration. Prednisolone glucoside, 2, (7.5 mg) or dexamethasone glucoside, 1, (7.5 mg) was administered by gastric intubation as a solution (0.5 mL) of water/95% ethanol (3:1). Prednisolone, 4, (5.25 mg) or dexamethasone, 3, (5.1 mg) was administered as a solution (0.5 mL) of water/95% ethanol (1:1). After the appropriate interval of time -3, 4, 5 or 6 hr.- the animals were sacrificed by carbon dioxide anesthesia followed by thoractomy. The small intestine and cecum were removed and cut into segments. Contents were separated from the tissues by rinsing the segments with cold, 0.9% saline (5.0 mL). The contents were immediately diluted to 30 mL with methanol. The tissues were suspended in 0.01 M KH2P04 (5.0 mL). Then an internal standard, either prednisolone, 4, or dexamethasone, 3, depending on the experimental steroid, was added to all the samples. Both the contents and tissues were then homogenized with a Polytron Homogenizer (Brinkman Inst. Co.) at med. speed for 1-2 min. The contents were then diluted to 40 mL total volume with methanol. The tissues were diluted to 25 mL total volume with methanol. All the samples were centrifuged (5,000 g, 15 min) and then the supernatant solutions were passed through membrane filters (0.45 micrometers, Versapor 800). The samples (1.4 mL) were then diluted with 0.01 M KH2PO4 (0.6 mL) and 20 microliters of the resulting solution injected directly onto the HPLC column for analysis.

[2] = KM(app) and Vmax determinations (Eadie-Hofstee plots); format: in vitro ADME, rat; conditions: 15 min, 37 C
Description: KM(app) and VMax Determinations. The KM(app)-Vmax for the hydrolysis of p-NP-glc and p-NP-gal were determined using pooled cecal homogenates (200 mL) as described above. A range of substrate (56-1000 micromolar; final volume 2.25 mL) concentrations, spanning their apparent KM, was used for each reaction. The amount of cecal homogenate used was 0.04 mL. Velocities were obtained, in duplicate, at 37 °C in a shaking water bath and the reaction stopped by addition of 0.2 N NaOH (0.25 mL) after 15 min. Release of p-nitrophenol was measured spectrophotometrically at 403 nm. Eadie-Hofstee plots were used to determine the KM(app) (micromolar) and Vmax (micromolar/min/g) of both reactions. The wet weight (g), measured immediately after removal and pooling, was used throughout.
Again, cecal contents from four rats were pooled, weighed, diluted (100 mL, 0.01 M phosphate buffer, pH 7.0) and homogenized. A range of substrate concentrations (0.5-48 micromolar, final volume 2.5 mL) spanning the apparent KM, was used for each reaction. The amount of cecal homogenate used was 0.8 mL. Reactions were run, in duplicate, at 37°C in a shaking water bath. After 15 min, the reactions were stopped by removing aliquots (0.3 mL) and quenching them with MeOH (4.7 mL). […] Again, Eadie-Hofstee plots were used to determine the KM(app) and VMax.

[3] = Rate of hydrolysis in homogenized cecal contents; conditions: for Sp. act. / Tot. act.: cecal contents, 37 C; for hydrolysis by cecal contents, comparison in words: cecal content homogenates
Description: (§1) (The entire small intestine was divided into two, equal length segments to give PSI and DSI.) Gastrointestinal contents were obtained from male, Sprague-Dawley rats (300-400 g) which had been maintained on a stock diet (Purina rat chow) and water ad libitum. The intestinal contents of each section were pooled from four animals for each assay. […] Following removal, the contents were quickly weighed, then diluted to 100 milliliters (stomach, PSI, and DSI) or 200 milliliters (cecum) with cold 0.01 M phosphate buffer, pH 7.0. […] Homogenates were then stored on ice (ca 30 min). […] The reaction was run at 37 °C in a shaking water bath. The reaction was stopped after 10, 20, or 30 min by addition of 0.2 N NaOH (0.25 milliliters).
(§2) Stomach and PSI contents were diluted to 50 mL with 0.01 M phosphate buffer, pH 7.0, DSI contents to 25 mL, and cecal contents to 200 mL, prior to homogenization. The homogenates (2.1 mL of stomach, PSI, and DSI and 1.7 mL of cecum) were added to the appropriate substrate solution (0.01 M phosphate buffer, pH 7.0) to give 1.0 mM substrate in a total volume of 2.5 mL. At various times up to 30 min, aliquots (0.3 mL) were removed and quenched with MeOH (4.7 mL). After centrifugation (5,000 g, 10 min), the samples were diluted (1:1) with 0.01 M KH2PO4 and 20 microliters of the resulting solution was injected directly onto the HPLC column for analysis.

[4] = Rate of hydrolysis in homogenized stomach contents; conditions: 37 C
[5] = Rate of hydrolysis in homogenized distal small intestine contents; conditions: for Sp. act. / Tot. act.: DSI contents, 37 C
Description: as §1, §2

[6] = Rate of hydrolysis in homogenized proximal small intestine contents; conditions: PSI contents, 37 C
physchem = format: physicochemical; conditions: 0.01 m phosphate buffer, pH 7, Log P
Description: The partitioning of prodrugs and free steroids between n-octanol and an aqueous phase (0.01 phosphate buffer, pH 7.0) were determined at 37 °C. Both octanol and buffer were saturated with the relevant aqueous or organic phase before use. […] The intitial concentration of steroid was 10 mM dissolved in the organic phase. The amount of glycoside and free steroid in the aqueous phase at equilibrium was measured spectrophotometrically at 239 nm for the dexamethasone and fludrocortisone compounds and 242 nm for the prednisolone and hydrocortisone compounds. The concentration of glycoside or free steroid in the octanol phase was determined by difference.

[7] = p-nitrophenyl substrate 56-1000 micromolar, 0.04 mL cecal homogenate, p-nitrophenol at 403 nm
[8] = prodrug 0.5-48 micromolar, 0.8 mL cecal homogenate, release of free steroid by HPLC, listed as galactoside 9
[9] = 1.0 mM prodrug, release of free steroid by HPLC
[10] = pH 7.0, 1.0 mM p-nitrophenyl substrate, p-nitrophenol at 403 nm
[11] = pH ca 5.0, 1.0 mM p-nitrophenyl substrate, p-nitrophenol at 403 nm
[12] = prodrug 0.5-48 micromolar, 0.8 mL cecal homogenate, release of free steroid by HPLC, listed as galactoside 11
[13] = prodrug 0.5-48 micromolar, 0.8 mL cecal homogenate, release of free steroid by HPLC, listed as galactoside 12
[14] = prodrug 0.5-48 micromolar, 0.8 mL cecal homogenate, release of free steroid by HPLC, listed as glucoside 5
[15] = prodrug 0.5-48 micromolar, 0.8 mL cecal homogenate, release of free steroid by HPLC, listed as glucoside 7
[16] = prodrug 0.5-48 micromolar, 0.8 mL cecal homogenate, release of free steroid by HPLC, listed as galactoside 10

Compound | Sp. act. [3, 9] [nmoles/min/g wet weight] | Tot. act. [3, 9] [µmol/min] | Sp. act. [4, 9] [nmoles/min/g wet weight] | Tot. act. [4, 9] [µmol/min] | Sp. act. [5, 9] [nmoles/min/g wet weight] | Tot. act. [5, 9] [µmol/min] | Sp. act. [6, 9] [nmoles/min/g wet weight] | Tot. act. [6, 9] [µmol/min] | further results
C[C@@H]1C[C@H]2[C@@H]3CCC4=CC(=O)C=C[C@]4(C)[C@@]3(F)[C@@H](O)C[C@]2(C)[C@@]1(O)C(=O)CO [Compound 3, 9 alpha-Fluoro-11 beta, 17 alpha-21 trihydroxy-16 alpha-methyl-3, 20-dioxopregna-1,4-diene, reference compound] | – | – | – | – | – | – | – | – | recovery at 3 h [1]: 3.9%; free steroid recovered in the cecum, as equivalent of the administered dose ([1]; 5 h): 44%
O=[N+]([O-])c1ccc(O[C@@H]2O[C@H](CO)[C@@H](O)[C@H](O)[C@H]2O)cc1 [p-NP-glc, p-nitrophenyl-beta-D-glucoside, reference compound] | – | – | – | – | – | – | – | – | Km [2, 7]: 360 µM; Vmax [2, 7]: 697 µM/min/g
CC1CC2C3CCC4=CC(=O)C=CC4(C)C3(F)C(O)CC2(C)C1(O)C(=O)COC1OC(CO)C(O)C(O)C1O [Compound 9, 9 alpha-Fluoro-11 beta, 17 alpha-dihydroxy-16 alpha-methyl-3, 20-dioxopregna-1,4-dien-21-yl beta-D-galactopyranoside] | 322 | 6.5 | 2.0 | 0.004 | 29.3 | 0.41 | 11.7 | 0.004 | Km [2, 8]: 13.3 µM; Vmax [2, 8]: 3.9 µM/min/g; hydrolysis by DSI contents, comparison in words ([5]; homogenates of DSI contents): more resistant to hydrolysis than the other prodrugs
O=[N+]([O-])c1ccc(O[C@@H]2O[C@H](CO)[C@@H](O[C@@H]3O[C@H](CO)[C@@H](O)[C@H](O)[C@H]3O)[C@H](O)[C@H]2O)cc1 [p-NP-cel, p-nitrophenyl-beta-D-cellobioside, reference compound] | – | – | – | – | – | – | – | – | Sp. act. [3, 10]: 96.5 nmoles/min/g wet weight; Tot. act. [3, 10]: 2.6 µmol/min; Sp. act. [4, 11]: 34.2 nmoles/min/g wet weight; Tot. act. [4, 11]: 0.35 µmol/min; Sp. act. [5, 10]: 26.0 nmoles/min/g wet weight; Tot. act. [5, 10]: 0.25 µmol/min; Sp. act. [6, 10]: 7.2 nmoles/min/g wet weight; Tot. act. [6, 10]: 0.05 µmol/min
C[C@]12CCC(=O)C=C1CC[C@H]1[C@@H]3CC[C@](O)(C(=O)CO)[C@@]3(C)C[C@H](O)[C@@]12F [Compound 8, 9 alpha-Fluoro-11 beta, 17 alpha-21-trihydroxy-3, 20-dioxopregna-4-ene] | – | – | – | – | – | – | – | – | logD at 0.5 h (physchem): 1.73
CC12CCC(=O)C=C1CCC1C2C(O)CC2(C)C1CCC2(O)C(=O)COC1OC(CO)C(O)C(O)C1O [Compound 11, 11 beta, 17 alpha-Dihydroxy-3, 20-dioxopregna-4-en-21-yl beta-D-galactopyranoside] | 592 | 11.9 | 12.5 | 0.02 | 110 | 1.6 | 42.5 | 0.02 | Km [2, 12]: 16.7 µM; Vmax [2, 12]: 10.2 µM/min/g
CC12CCC(=O)C=C1CCC1C3CCC(O)(C(=O)COC4OC(CO)C(O)C(O)C4O)C3(C)CC(O)C12F [Compound 12, 9 alpha-Fluoro-11 beta, 17 alpha-dihydroxy-3, 20-dioxopregna-4-en-21-yl beta-D-galactopyranoside] | 642 | 12.9 | 7.0 | 0.01 | 56.7 | 0.80 | 12.5 | 0.01 | Km [2, 13]: 33.3 µM; Vmax [2, 13]: 20.6 µM/min/g
CC12CCC(=O)C=C1CCC1C2C(O)CC2(C)C1CCC2(O)C(=O)COC1OC(CO)C(O)C(O)C1O [Compound 5, 11 beta, 17 alpha-Dihydroxy-3, 20-dioxopregna-4-en-21-yl beta-D-glucopyranoside] | 30.5 | 0.76 | 5.5 | 0.09 | 39.2 | 0.70 | 15.9 | 0.10 | Km [2, 14]: 5.7 µM; Vmax [2, 14]: 2.6 µM/min/g; hydrolysis by cecal contents, comparison in words [3]: hydrolyzed more slowly than the other glucoside prodrugs
O=[N+]([O-])c1ccc(O[C@@H]2O[C@H](CO)[C@H](O)[C@H](O)[C@H]2O)cc1 [p-NP-gal, p-nitrophenyl-beta-D-galactoside, reference compound] | – | – | – | – | – | – | – | – | Km [2, 7]: 166 µM; Vmax [2, 7]: 1233 µM/min/g
CC12CCC(=O)C=C1CCC1C3CCC(O)(C(=O)COC4OC(CO)C(O)C(O)C4O)C3(C)CC(O)C12F [Compound 7, 9 alpha-Fluoro-11 beta, 17 alpha-dihydroxy-3, 20-dioxopregna-4-en-21-yl beta-D-glucopyranoside] | 42.0 | 1.4 | 7.7 | 0.14 | 33.0 | 0.43 | 12.3 | 0.08 | Km [2, 15]: 4.4 µM; Vmax [2, 15]: 2.4 µM/min/g; hydrolysis by cecal contents, comparison in words [3]: hydrolyzed more slowly than the other glucoside prodrugs
CC12C=CC(=O)C=C1CCC1C2C(O)CC2(C)C1CCC2(O)C(=O)COC1OC(CO)C(O)C(O)C1O [Compound 10, 11 beta, 17 alpha-dihydroxy-3,20-dioxopregna-l,4-dien-21-yl beta-D-galactopyranoside] | 665 | 13 | 12.1 | 0.19 | 122 | 1.72 | 49.3 | 0.23 | Km [2, 16]: 20 µM; Vmax [2, 16]: 10.3 µM/min/g
